Laboratory results: US9920063B2, “Melampomagnolide B derivatives” (Board of Trustees of the University of Arkansas, priority 2013, dated 2018)
Read-outs that look alike come from different tables or passages of the source.

Assays:
COLO 205 = assay: NCI human tumor cell line panel, Colon Cancer; format: cell-based

Description for AML 052308 cells: For each compound, in vitro cell culture studies were performed in which a range of concentrations (0.25-20 μM) was tested for cytotoxicity against leukemia cell lines, primary leukemia specimens and normal bone marrow controls.

SMILES: C=C1C(=O)O[C@H]2[C@H]1CC/C(COC(=O)c1cc3ccccc3[nH]1)=C\CC[C@@]1(C)O[C@@H]21 [BS-1-28]
- Percent Growth (COLO 205; Log10 Concentration −4.0): −63%
- Percent Growth (COLO 205; Log10 Concentration −5.0): −61%
- Percent Growth (COLO 205; Log10 Concentration −6.0): 39%
- Percent Growth (COLO 205; Log10 Concentration −7.0): 60%
- Percent Growth (COLO 205; Log10 Concentration −8.0): 27%
- TGI (COLO 205; NCI five dose): 2.44E−6
- CC50 (K-562): > 100000 nM
- Percent Growth (K-562; K-562, Log10 Concentration −4.0): −24%
- Percent Growth (K-562; K-562, Log10 Concentration −5.0): −1%
- Percent Growth (K-562; K-562, Log10 Concentration −6.0): 5%
- Percent Growth (K-562; K-562, Log10 Concentration −7.0): 98%
- Percent Growth (K-562; K-562, Log10 Concentration −8.0): 100%
- GI50 (K-562; K-562, NCI five dose): 327 nM
- TGI (K-562; K-562, NCI five dose): 5.79E−6
- CC50 (HOP-92): 4660 nM
- Percent Growth (HOP-92; HOP-92, Log10 Concentration −4.0): −97%
- Percent Growth (HOP-92; HOP-92, Log10 Concentration −5.0): −91%
- Percent Growth (HOP-92; HOP-92, Log10 Concentration −6.0): 40%
- Percent Growth (HOP-92; HOP-92, Log10 Concentration −7.0): 71%
- Percent Growth (HOP-92; HOP-92, Log10 Concentration −8.0): 74%
- GI50 (HOP-92; HOP-92, NCI five dose): 480 nM
- TGI (HOP-92; HOP-92, NCI five dose): 2.02E−6
- CC50 (NCI-H322M): 6470 nM
- Percent Growth (NCI-H322M; NCI-H322M, Log10 Concentration −4.0): −89%
- Percent Growth (NCI-H322M; NCI-H322M, Log10 Concentration −5.0): −82%
- Percent Growth (NCI-H322M; NCI-H322M, Log10 Concentration −6.0): 88%
- Percent Growth (NCI-H322M; NCI-H322M, Log10 Concentration −7.0): 95%
- Percent Growth (NCI-H322M; NCI-H322M, Log10 Concentration −8.0): 81%
- GI50 (NCI-H322M; NCI-H322M, NCI five dose): 1680 nM
- TGI (NCI-H322M; NCI-H322M, NCI five dose): 3.29E−6
- CC50 (HCT-15): 2430 nM
- Percent Growth (HCT-15; HCT-15, Log10 Concentration −4.0): −82%
- Percent Growth (HCT-15; HCT-15, Log10 Concentration −5.0): −64%
- Percent Growth (HCT-15; HCT-15, Log10 Concentration −6.0): −41%
- Percent Growth (HCT-15; HCT-15, Log10 Concentration −7.0): 94%
- Percent Growth (HCT-15; HCT-15, Log10 Concentration −8.0): 93%
- GI50 (HCT-15; HCT-15, NCI five dose): 211 nM
- TGI (HCT-15; HCT-15, NCI five dose): 4.95E−7
- CC50 (SF-268): 6500 nM
- Percent Growth (SF-268; SF-268, Log10 Concentration −4.0): −85%
- Percent Growth (SF-268; SF-268, Log10 Concentration −5.0): −81%
- Percent Growth (SF-268; SF-268, Log10 Concentration −6.0): 83%
- Percent Growth (SF-268; SF-268, Log10 Concentration −7.0): 96%
- Percent Growth (SF-268; SF-268, Log10 Concentration −8.0): 98%
- GI50 (SF-268; SF-268, NCI five dose): 1590 nM
- TGI (SF-268; SF-268, NCI five dose): 3.22E−6
- CC50 (SF-295): 12000 nM
- Percent Growth (SF-295; SF-295, Log10 Concentration −4.0): −95%
- Percent Growth (SF-295; SF-295, Log10 Concentration −5.0): .46%
- Percent Growth (SF-295; SF-295, Log10 Concentration −6.0): 79%
- Percent Growth (SF-295; SF-295, Log10 Concentration −7.0): 89%
- Percent Growth (SF-295; SF-295, Log10 Concentration −8.0): 85%
- GI50 (SF-295; SF-295, NCI five dose): 1710 nM
- TGI (SF-295; SF-295, NCI five dose): 4.28E−6
- CC50 (SF-539): 6530 nM
- Percent Growth (SF-539; SF-539, Log10 Concentration −4.0): −91%
- Percent Growth (SF-539; SF-539, Log10 Concentration −5.0): −91%
- Percent Growth (SF-539; SF-539, Log10 Concentration −6.0): 70%
- Percent Growth (SF-539; SF-539, Log10 Concentration −7.0): 93%
- Percent Growth (SF-539; SF-539, Log10 Concentration −8.0): 90%
- GI50 (SF-539; SF-539, NCI five dose): 1320 nM
- TGI (SF-539; SF-539, NCI five dose): 2.71E−4
- CC50 (U251): 8680 nM
- Percent Growth (U251; U251, Log10 Concentration −4.0): −74%
- Percent Growth (U251; U251, Log10 Concentration −5.0): −59%
- Percent Growth (U251; U251, Log10 Concentration −6.0): 92%
- Percent Growth (U251; U251, Log10 Concentration −7.0): 96%
- Percent Growth (U251; U251, Log10 Concentration −8.0): 98%
- GI50 (U251; U251, NCI five dose): 1690 nM
- TGI (U251; U251, NCI five dose): 4.06E−6
- CC50 (MALME-3M): 6070 nM
- Percent Growth (MALME-3M; MALME-3M, Log10 Concentration −4.0): −82%
- Percent Growth (MALME-3M; MALME-3M, Log10 Concentration −5.0): −87%
- Percent Growth (MALME-3M; MALME-3M, Log10 Concentration −6.0): 82%
- Percent Growth (MALME-3M; MALME-3M, Log10 Concentration −7.0): 91%
- Percent Growth (MALME-3M; MALME-3M, Log10 Concentration −8.0): 91%
- GI50 (MALME-3M; MALME-3M, NCI five dose): 1560 nM
- TGI (MALME-3M; MALME-3M, NCI five dose): 3.07E−6
- CC50 (UACC-62): 6980 nM
- Percent Growth (UACC-62; UACC-62, Log10 Concentration −4.0): −15%
- Percent Growth (UACC-62; UACC-62, Log10 Concentration −5.0): −73%
- Percent Growth (UACC-62; UACC-62, Log10 Concentration −6.0): 75%
- Percent Growth (UACC-62; UACC-62, Log10 Concentration −7.0): 91%
- Percent Growth (UACC-62; UACC-62, Log10 Concentration −8.0): 97%
- GI50 (UACC-62; UACC-62, NCI five dose): 1470 nM
- TGI (UACC-62; UACC-62, NCI five dose): 3.21E−6
- CC50 (SK-OV-3): 11700 nM
- Percent Growth (SK-OV-3; SK-OV-3, Log10 Concentration −4.0): −86%
- Percent Growth (SK-OV-3; SK-OV-3, Log10 Concentration −5.0): −47%
- Percent Growth (SK-OV-3; SK-OV-3, Log10 Concentration −6.0): 77%
- Percent Growth (SK-OV-3; SK-OV-3, Log10 Concentration −7.0): 90%
- Percent Growth (SK-OV-3; SK-OV-3, Log10 Concentration −8.0): 82%
- GI50 (SK-OV-3; SK-OV-3, NCI five dose): 1650 nM
- TGI (SK-OV-3; SK-OV-3, NCI five dose): 4.47E−6
- CC50 (CAKI-1): 4820 nM
- Percent Growth (CAKI-1; CAKI-1, Log10 Concentration −4.0): −100%
- Percent Growth (CAKI-1; CAKI-1, Log10 Concentration −5.0): −99%
- Percent Growth (CAKI-1; CAKI-1, Log10 Concentration −6.0): 55%
- Percent Growth (CAKI-1; CAKI-1, Log10 Concentration −7.0): 90%
- Percent Growth (CAKI-1; CAKI-1, Log10 Concentration −8.0): 86%
- GI50 (CAKI-1; CAKI-1, NCI five dose): 1080 nM
- TGI (CAKI-1; CAKI-1, NCI five dose): 2.18E−6
- CC50 (PC-3): 6450 nM
- Percent Growth (PC-3; PC-3, Log10 Concentration −4.0): −94%
- Percent Growth (PC-3; PC-3, Log10 Concentration −5.0): −79%
- Percent Growth (PC-3; PC-3, Log10 Concentration −6.0): 73%
- Percent Growth (PC-3; PC-3, Log10 Concentration −7.0): 87%
- Percent Growth (PC-3; PC-3, Log10 Concentration −8.0): 88%
- GI50 (PC-3; PC-3, NCI five dose): 1420 nM
- TGI (PC-3; PC-3, NCI five dose): 3.62E−4
- CC50 (DU-145): 5200 nM
- Percent Growth (DU-145; DU-145, Log10 Concentration −4.0): −98%
- Percent Growth (DU-145; DU-145, Log10 Concentration −5.0): −95%
- Percent Growth (DU-145; DU-145, Log10 Concentration −6.0): 63%
- Percent Growth (DU-145; DU-145, Log10 Concentration −7.0): 98%
- Percent Growth (DU-145; DU-145, Log10 Concentration −8.0): 91%
- GI50 (DU-145; DU-145, NCI five dose): 1210 nM
- TGI (DU-145; DU-145, NCI five dose): 2.51E−6
- CC50 (MDA-MB-231/ATCC): 8560 nM
- Percent Growth (MDA-MB-231/ATCC; MDA-MB-231/ATCC, Log10 Concentration −4.0): −73%
- Percent Growth (MDA-MB-231/ATCC; MDA-MB-231/ATCC, Log10 Concentration −5.0): −58%
- Percent Growth (MDA-MB-231/ATCC; MDA-MB-231/ATCC, Log10 Concentration −6.0): 56%
- Percent Growth (MDA-MB-231/ATCC; MDA-MB-231/ATCC, Log10 Concentration −7.0): 87%
- Percent Growth (MDA-MB-231/ATCC; MDA-MB-231/ATCC, Log10 Concentration −8.0): 89%
- GI50 (MDA-MB-231/ATCC; MDA-MB-231/ATCC, NCI five dose): 1140 nM
- TGI (MDA-MB-231/ATCC; MDA-MB-231/ATCC, NCI five dose): 3.12E−6
- CC50 (T-47D): > 100000 nM
- GI50 (T-47D): < 10 nM
- Percent Growth (T-47D; T-47D, Log10 Concentration −4.0): −33%
- Percent Growth (T-47D; T-47D, Log10 Concentration −5.0): −43%
- Percent Growth (T-47D; T-47D, Log10 Concentration −6.0): 35%
- Percent Growth (T-47D; T-47D, Log10 Concentration −7.0): 40%
- Percent Growth (T-47D; T-47D, Log10 Concentration −8.0): −2%
- GI50 (T-47D; T-47D, NCI five dose): < 10 nM
- CC50 (MDA-MB-468): 5170 nM
- Percent Growth (MDA-MB-468; MDA-MB-468, Log10 Concentration −4.0): −52%
- Percent Growth (MDA-MB-468; MDA-MB-468, Log10 Concentration −5.0): −71%
- Percent Growth (MDA-MB-468; MDA-MB-468, Log10 Concentration −6.0): 3%
- Percent Growth (MDA-MB-468; MDA-MB-468, Log10 Concentration −7.0): 95%
- Percent Growth (MDA-MB-468; MDA-MB-468, Log10 Concentration −8.0): 76%
- GI50 (MDA-MB-468; MDA-MB-468, NCI five dose): 307 nM
- TGI (MDA-MB-468; MDA-MB-468, NCI five dose): 1.10E−6
- Fold more cytotoxic than MMB (AML 052308 cells): around 7 fold
